Results published in ChEMBL document CHEMBL1122787, “Acetylenic nucleosides. 3. Synthesis and biological activities of some 5-ethynylpyrimidine nucleosides” (1984).
The source made the active and inactive calls. The rule behind the calls is not given here.

How the values were obtained:
[1] = Compound was evaluated for its concentration for antiviral activity against the replication of herpes simplex virus type 1 in monkey kidney cells; type: functional, Cercopithecidae
B16 [2] = test: Compound was evaluated for antitumor activity against B16 melanoma cell lines in culture; type: functional, Mus musculus
L1210 [3] = test: Compound was evaluated for antitumor activity against L-1210 cell lines in culture; type: functional, Mus musculus
B16 [4] = test: Compound was evaluated for antitumor activity against B16 melanoma cell lines in culture; IN-Inactive at 10E-4 concentration; type: functional, cell-based; conditions: Mus musculus
L1210 [5] = test: Compound was evaluated for antitumor activity against L-1210 cell lines in culture; IN-Inactive at 10E-4 concentration; type: functional, cell-based; conditions: Mus musculus

For `C#Cc1cn([C@@H]2O[C@H](CO)[C@@H](O)[C@@H]2F)c(=O)nc1N`, which ID90 [1] is on record?
Its ID90 is 50 µM.

What about the Inhibition (B16 [2]) of the same molecule?
Its Inhibition is about 60 µM.

What about the Inhibition (L1210 [3]) of the same molecule?
Its Inhibition is about 60 µM.

Which results are given for `C#Cc1cn([C@@H]2O[C@H](CO)[C@@H](O)[C@@H]2N=[N+]=[N-])c(=O)[nH]c1=O`?
Inhibition (B16 [4]): inactive; Inhibition (L1210 [5]): inactive
